Among the test systems are SN12C renal; SR leukemia; 786-0 renal; A498 renal; EKVX NSCLC; U251 CNS; SNB-19 CNS; HCT-15 colon; OVCAR-5 ovarian; SF-539 CNS; CCRF-CEM leukemia; K-562 leukemia; SK-MEL-2 melanoma.
What all share (experiment): NCI tumour cell line growth inhibition, 48 h

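The compound was tested at five concentrations on cells cultured in 96-well plates, with a 48-hour exposure period. TGI: concentration producing complete growth inhibition.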

As for `CC1=C2c3ccccc3N(S(=O)(=O)c3ccccc3)[C@H]2[C@H](C(=O)N2C3CC4CC[C@@]3(CS2(=O)=O)C4(C)C)CC1` (stereo partly specified), the TGI in the assay with SN12C renal, in the assay with SR leukemia, with 786-0 renal, in the assay with A498 renal, with EKVX NSCLC and in the assay on U251 CNS was greater than 100 µM throughout. In addition, the TGI with SNB-19 CNS, with HCT-15 colon, with OVCAR-5 ovarian, with SF-539 CNS, in the assay with CCRF-CEM leukemia and in the assay on K-562 leukemia was greater than 100 µM in each case.

On to `COC(=O)C(C(=O)C(=O)Nc1ccc([N+](=O)[O-])cc1)c1nc2cc(C)c(C)cc2[nH]c1=O` (stereo unspecified), for which the TGI in the assay with SN12C renal, with SR leukemia, in the assay on 786-0 renal, in the assay with A498 renal, with EKVX NSCLC and with U251 CNS was greater than 100 µM each time. In addition, the TGI with SNB-19 CNS, with HCT-15 colon, in the assay on OVCAR-5 ovarian, in the assay on SF-539 CNS, with CCRF-CEM leukemia and in the assay with K-562 leukemia was greater than 100 µM throughout.

On to `O=C(Nn1c(-c2ccccc2)nc2ccccc2c1=O)c1ccc(O)cc1`, for which the TGI in the assay with SN12C renal, in the assay with SR leukemia, with 786-0 renal, in the assay with A498 renal, with EKVX NSCLC and in the assay on U251 CNS was greater than 100 µM in each case. Moreover, the TGI with SNB-19 CNS, with HCT-15 colon, with OVCAR-5 ovarian, in the assay on SF-539 CNS, with CCRF-CEM leukemia and in the assay on K-562 leukemia was greater than 100 µM throughout.

Regarding `COc1ccc2[nH]cc(CN3CCC(CO)(c4ccccc4)CC3)c2c1`, the TGI in the assay with SN12C renal was greater than 100 µM; in the assay with SR leukemia, 52.8 µM; in the assay with 786-0 renal, 28.6 µM; in the assay on SK-MEL-2 melanoma, 55.3 µM; in the assay with A498 renal, greater than 100 µM; in the assay with EKVX NSCLC, 24 µM. Further, the TGI is greater than 100 µM in the assay with U251 CNS; greater than 100 µM in the assay on SNB-19 CNS; greater than 100 µM with HCT-15 colon; greater than 100 µM with OVCAR-5 ovarian; 75.1 µM with CCRF-CEM leukemia; 43.1 µM with K-562 leukemia.

As for `C[N+]1(CCCC[N+]2(C)CCCCCCC2)CCCCCCC1`, the TGI in the assay on SN12C renal, with SR leukemia, in the assay on 786-0 renal, in the assay on SK-MEL-2 melanoma, with A498 renal and in the assay with EKVX NSCLC was greater than 100 µM each time. Besides, the TGI in the assay on U251 CNS, in the assay on SNB-19 CNS, with HCT-15 colon, in the assay on OVCAR-5 ovarian, with CCRF-CEM leukemia and in the assay on K-562 leukemia was greater than 100 µM each time.

For `CCCCC1=CC1(C#N)[N+](=O)[O-]` (stereo unspecified), the TGI in the assay with SN12C renal, with SR leukemia, with 786-0 renal, in the assay with A498 renal, in the assay with EKVX NSCLC and with U251 CNS was greater than 100 µM in each case. Besides, the TGI is greater than 100 µM in the assay with SNB-19 CNS; greater than 100 µM in the assay on HCT-15 colon; greater than 100 µM in the assay with OVCAR-5 ovarian; greater than 100 µM in the assay with SF-539 CNS; 63.6 µM with CCRF-CEM leukemia; 66.6 µM in the assay with K-562 leukemia.

Turning to `N#Cc1nc(C2SCCCS2)oc1N`, the TGI in the assay with SN12C renal, in the assay with SR leukemia, in the assay with 786-0 renal, in the assay with SK-MEL-2 melanoma, in the assay on A498 renal and in the assay with EKVX NSCLC was greater than 100 µM each time. Further, the TGI in the assay with U251 CNS, in the assay with SNB-19 CNS, in the assay with HCT-15 colon, in the assay on OVCAR-5 ovarian, in the assay on CCRF-CEM leukemia and in the assay on K-562 leukemia was greater than 100 µM throughout.

Turning to `Nc1ccc(-c2nc3ccccc3s2)cc1F`, the TGI was greater than 100 µM in the assay with SN12C renal; 53.9 µM in the assay on SR leukemia; 50.2 µM in the assay on 786-0 renal; 43.4 µM with SK-MEL-2 melanoma; 4.46 µM with A498 renal; 11.8 µM with EKVX NSCLC. The TGI in the assay on U251 CNS is greater than 100 µM; with SNB-19 CNS, 87.9 µM; in the assay with HCT-15 colon, greater than 100 µM; with CCRF-CEM leukemia, greater than 100 µM; with K-562 leukemia it was greater than 100 µM.

Take `N#CC1C(=O)NC2=C(CCOc3c2ccc2ccccc32)C1c1ccc(F)cc1` (stereo unspecified): the TGI with SN12C renal was 27.3 µM; in the assay on 786-0 renal it was 32.8 µM; with SK-MEL-2 melanoma, greater than 100 µM; with A498 renal, 44.1 µM; with EKVX NSCLC, greater than 100 µM; with U251 CNS, 24.7 µM. Further, the TGI is 52.7 µM with SNB-19 CNS; greater than 100 µM in the assay on HCT-15 colon; 71.9 µM with OVCAR-5 ovarian; greater than 100 µM in the assay with SF-539 CNS; greater than 100 µM in the assay with CCRF-CEM leukemia; greater than 100 µM in the assay with K-562 leukemia.

Regarding `Cc1cn(C2CC(N=[N+]=[N-])C(CO)O2)c(=O)n(CCCCO)c1=O` (stereo unspecified), the TGI in the assay on SN12C renal, in the assay with 786-0 renal, in the assay with SK-MEL-2 melanoma, with A498 renal, in the assay with EKVX NSCLC and in the assay with U251 CNS was greater than 100 µM throughout. Also, the TGI with SNB-19 CNS, in the assay with HCT-15 colon, in the assay on OVCAR-5 ovarian, in the assay on SF-539 CNS, with CCRF-CEM leukemia and with K-562 leukemia was greater than 100 µM throughout.

Take `CC(=O)OC(C#N)CC(C)(C)/[N+]([O-])=[N+](\[O-])C(C)(C)CC(C#N)OC(C)=O` (stereo unspecified): the TGI was 35.7 µM in the assay on SN12C renal; 48.3 µM in the assay with SR leukemia; 24.7 µM in the assay with 786-0 renal; greater than 100 µM in the assay on SK-MEL-2 melanoma; greater than 100 µM in the assay with A498 renal; 39.7 µM in the assay with EKVX NSCLC. For the same molecule, the TGI with U251 CNS was 39.5 µM; in the assay with SNB-19 CNS it was 67.6 µM; in the assay on HCT-15 colon it was 25.5 µM; in the assay on OVCAR-5 ovarian it was 95.4 µM; with CCRF-CEM leukemia, greater than 100 µM; in the assay on K-562 leukemia, 26.2 µM.

(Values after PubChem BioAssay (NCI).)
